In publication PMC9421655, “Novel Antagonist of the Type 2 Lysophosphatidic Acid Receptor (LPA2), UCM-14216, Ameliorates Spinal Cord Injury in Mice” (Journal of Medicinal Chemistry, 2022):

Assays:
[1] = Metabolic stability in human liver microsomes; type: in vitro ADME; conditions: male, liver microsomes (pooled), 1 mg/mL protein, NADPH, 37 °C, read-out: stability (t1/2, min) HLMs
Protocol: Reactions were initiated by the addition of a suspension of mouse liver microsomes (MLMs) (male CD-1 mice pooled, Sigma-Aldrich) or human liver microsomes (HLMs) (male human pooled, Sigma-Aldrich), respectively, at a final protein concentration of 1 mg/mL. […] Aliquots of 100 μL were quenched at time zero and at seven points ranging to 2 h (MLM) or 4 h (HLM) by pouring into 100 μL of ice-cold acetonitrile. […] The relative disappearance of the compound under study over the course of the incubation was monitored by HPLC-MS using SIM mode. Concentrations were quantified by measuring the area under the peak ([M + H]^+) normalized with an internal standard and converted to the percentage of compound remaining, using the time zero peak area value as 100%. The natural logarithm of the remaining percentage versus time data for each compound was fit to a linear regression, and the slope was used to calculate the degradation half-life (t1/2).

LPA2 [2] = target: T1, LPA2 (Homo sapiens, UniProt Q9HBW0); experiment: Free solution assay-compensated interferometric reader (FSA-CIR) binding, LPA2; conditions: receptor-containing nanovesicles, read-out: binding equilibrium constant (KD) at LPA2
T1 construct: expressed in transfected cells
Protocol: (§1) The assay was analyzed using a benchtop Compensated Interferometric Reader (CIR) that measured the light refractive index (ΔRI) change from binding-induced conformational and/or hydration changes produced by real time binding events in a sample (receptor containing nanovesicles plus compound) and compared to a nonbinding reference (RI matched buffer plus compound).[30] Finally, the interferometric signal from vector nanovesicles binding (nonspecific) to compound was subtracted from the LPA2,4–6 containing nanovesicles binding (total) to compound, to determine the specific binding interactions of the compounds to LPA2,4–6. The concentration-dependent change in RI (ΔRI) signal from the compounds to LPA2,4–6 or vector was fitted using the single site total vs nonspecific binding isotherm using GraphPad Prism. Specific KD values were determined by fitting the total minus nonspecific signal to a single site binding isotherm.
(§2) The detailed free solution assay method was described previously.[25],[26] All the compounds were dissolved in 100% DMSO, aliquoted, and frozen at −80 °C for 1 week. The compound dilution series was freshly prepared in 0.5% DMSO/PBS (pH 7.4) to keep the maximum compound in solution. […]

LPA2 mutant R107A = target: T2, LPA2 mutant R107A (Homo sapiens, UniProt Q9HBW0, R104A); experiment: Ca2+ mobilization in McA-RH7777 cells transfected with LPA2 point mutant R107A; type: cell-based; conditions: 54 at 10 μM, 10 μM LPA
T2 construct: host or cells: McA-RH7777 (CRL-1601, ATCC), transient, pcDNA3.1

LPA2 [3] = target: T1, LPA2; experiment: Ca2+ mobilization assay, antagonist activity at LPA2; type: cell-based; parameters: Emax: dose or concentration left out as unconfirmed
Protocol: (§3) Cells stably expressing the corresponding LPA1–3 receptor were grown as described previously.[18] Changes in intracellular calcium levels were measured by using the fluorescent calcium sensitive dye Fluo-4 NW (Invitrogen). RH7777 cells or B103 cells were plated on poly-D-lysine or collagen coated, respectively, black-wall clear-bottom 96-well plates (Corning) at a density of 50 000 cells/well and cultured overnight. The culture medium was then replaced with 100 μL of Fluo-4 NW dye loading solution containing 2.5 μM of probenecid and incubated for 30 min at 37 °C followed by an additional 30 min at rt. […] Fluorescence changes were registered in a FluoStar Optima instrument (BMG Labtech) at 525 nm using an excitation wavelength of 494 nm. […] The data presented are from two to four independent experiments carried out in triplicate or quadruplicate. Dose–response curves were generated and IC50 values calculated by nonlinear regression analysis using Prism software version 5 (GraphPad Software Inc., San Diego, CA, USA).
Figure S2. Dose response curves for compounds 13, 44, 53, 54, and 55. B103 cells stably expressing LPA2 receptor were incubated with different concentrations of the compound under study and […]
Curves were generated with PRISM software version 5 (GraphPad Software Inc, San Diego, CA, USA) using nonlinear regression analysis. Each data point corresponds to the mean±SEM of two to four independent experiments carried out in triplicate or quadruplicate.

[4] = test system: spinal cord injury in C57Bl/6J mice; experiment: Spinal cord contusion injury model, locomotor recovery (Basso Mouse Scale); type: in vivo; conditions: C57Bl/6 mice
Protocol: BMS is the gold standard test used for locomotor scoring after SCI in which two blinder observers score the mouse motor performance based on a nine-point scale.[28]
Adult female C57Bl/6J mice (10–12 weeks old) and LPA2 null mice were anesthetized by intramuscular injection with a mixture of ketamine and xylazine (90:10 mg/kg). A laminectomy was performed at the 11th thoracic vertebrae and the exposed spinal cord was contused using the Infinite Horizon Impactor device (Precision Scientific Instrumentation) using a force of 60 kdynes. Only mice showing a spinal cord tissue displacement ranging between 450 and 550 μm were selected.

LPA2 mutant Q108A = target: T3, LPA2 mutant Q108A (Homo sapiens, UniProt Q9HBW0, Q105A); experiment: Ca2+ mobilization in McA-RH7777 cells transfected with LPA2 point mutant Q108A; type: cell-based; conditions: 54 at 10 μM, 10 μM LPA
T3 construct: host or cells: McA-RH7777 (CRL-1601, ATCC), transient, pcDNA3.1

LPA1 = LPA1 (Homo sapiens, UniProt Q92633); experiment: cell-based; conditions: maximum blockade of activation induced by 10 μM LPA (18:1) at 10 μM compound; N.E. = no effect at 10 μM
Protocol: as §3

LPA5 = LPA5 (Homo sapiens, UniProt Q9H1C0); conditions: in abstract
Protocol: as §1, §2

LPA4 = LPA4 (Homo sapiens, UniProt Q99677); conditions: in abstract
Protocol: as §1, §2

LPA2 mutant K22A = target: T4, LPA2 mutant K22A (Homo sapiens, UniProt Q9HBW0, K19A); experiment: Ca2+ mobilization in McA-RH7777 cells transfected with LPA2 point mutant K22A; type: cell-based; conditions: 54 at 10 μM, 10 μM LPA
T4 construct: host or cells: McA-RH7777 (CRL-1601, ATCC), transient, pcDNA3.1

LPA2 [5] = target: T1, LPA2; experiment: Ca2+ mobilization assay, agonist activity at LPA2; type: cell-based; conditions: 10 μM compound
Protocol: The agonist activity at LPA2 receptors was determined at 10 μM concentration for all final compounds as previously described.[18]
Figure S1. Representative snapshots showing the lack of significant agonist activity of selected compounds. (A) 1; (B) 13; (C) 54; and (D) Ki16425. (E) Graphs show the agonist activity induced […]
stably expressing LPA2 receptor were plated on collagen-coated black-wall clear-bottom 96-well plates (Corning) at a density of 50000 cells/well and cultured overnight. The culture medium was then replaced with Fluo-4 NW dye loading solution containing 2.5 µM of probenecid and incubated […]
for 30 minutes at 37 °C followed by an additional 30 minutes at rt. Fluorescence changes were registered in a FluoStar Optima instrument (BMG Labtech) at 525 nm using an excitation wavelength of 494 nm. Each well was monitored for 240 s. 20 µL of the test compound from a 6x stock solution in assay buffer were added after 120 s of starting the measurement. Ca2+ transient increase was quantified by calculating the difference between maximum and baseline values for each […]
Graphs shown are representative of two to three independent experiments.

T1 sequence (Q9HBW0 whole entry, species assumed): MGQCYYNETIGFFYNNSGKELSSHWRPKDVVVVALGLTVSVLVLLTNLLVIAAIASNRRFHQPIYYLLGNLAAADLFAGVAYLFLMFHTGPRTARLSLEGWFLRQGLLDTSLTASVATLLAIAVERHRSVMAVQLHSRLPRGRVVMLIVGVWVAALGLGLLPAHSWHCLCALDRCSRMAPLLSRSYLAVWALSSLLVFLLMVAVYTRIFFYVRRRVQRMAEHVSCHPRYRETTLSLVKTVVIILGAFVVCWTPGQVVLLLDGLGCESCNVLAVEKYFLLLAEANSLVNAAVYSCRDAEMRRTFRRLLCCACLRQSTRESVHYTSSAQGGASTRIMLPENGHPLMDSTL
Sequence of LPA1 (Q92633 whole entry, species assumed): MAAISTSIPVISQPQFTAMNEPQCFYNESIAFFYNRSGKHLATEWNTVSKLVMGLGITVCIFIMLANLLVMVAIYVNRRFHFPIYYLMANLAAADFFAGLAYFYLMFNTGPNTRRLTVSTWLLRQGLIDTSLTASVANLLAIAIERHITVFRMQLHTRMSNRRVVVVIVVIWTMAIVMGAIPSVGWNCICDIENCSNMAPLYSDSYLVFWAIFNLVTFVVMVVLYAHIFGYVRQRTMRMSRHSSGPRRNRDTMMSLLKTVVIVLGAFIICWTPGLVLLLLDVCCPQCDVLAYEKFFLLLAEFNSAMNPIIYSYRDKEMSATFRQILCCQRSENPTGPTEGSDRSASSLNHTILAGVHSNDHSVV
T3 sequence (Q9HBW0 whole entry Q105A): as the sequence (Q9HBW0 whole entry, species assumed) above, with Q105A counted along it
T2 sequence (Q9HBW0 whole entry R104A): as the sequence (Q9HBW0 whole entry, species assumed) above, with R104A counted along it
T4 sequence (Q9HBW0 whole entry K19A): as the sequence (Q9HBW0 whole entry, species assumed) above, with K19A counted along it
Sequence of LPA5 (Q9H1C0 whole entry, species assumed): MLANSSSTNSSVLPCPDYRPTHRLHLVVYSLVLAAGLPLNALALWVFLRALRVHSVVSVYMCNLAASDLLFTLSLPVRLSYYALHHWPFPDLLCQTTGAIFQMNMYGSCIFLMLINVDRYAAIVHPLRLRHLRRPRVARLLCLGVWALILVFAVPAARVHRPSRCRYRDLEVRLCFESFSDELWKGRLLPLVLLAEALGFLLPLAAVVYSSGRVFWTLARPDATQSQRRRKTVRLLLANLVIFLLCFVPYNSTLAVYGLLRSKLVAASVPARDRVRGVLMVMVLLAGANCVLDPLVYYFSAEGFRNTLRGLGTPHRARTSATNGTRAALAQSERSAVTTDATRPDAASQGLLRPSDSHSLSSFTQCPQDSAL
Sequence of LPA4 (Q99677 whole entry, species assumed): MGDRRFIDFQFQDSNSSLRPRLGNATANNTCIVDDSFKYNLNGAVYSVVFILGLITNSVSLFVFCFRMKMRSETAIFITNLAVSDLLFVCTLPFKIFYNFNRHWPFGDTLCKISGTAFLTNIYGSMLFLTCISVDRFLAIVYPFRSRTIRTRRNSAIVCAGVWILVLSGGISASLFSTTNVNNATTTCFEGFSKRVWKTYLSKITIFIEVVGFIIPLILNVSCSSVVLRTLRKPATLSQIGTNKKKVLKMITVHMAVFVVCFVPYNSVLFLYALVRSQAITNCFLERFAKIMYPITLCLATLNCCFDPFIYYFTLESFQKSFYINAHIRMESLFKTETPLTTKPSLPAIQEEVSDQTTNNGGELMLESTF

## Cc1[nH]nc(-c2ccc(OCc3nnn[nH]3)cc2O)c1Oc1ccc(Cl)cc1Cl [Compound 54]
other
  melting point: 180 to 182 °C
[1]
  half-life at 5 μM: 97 ± 15 min
LPA2 [2]
  Kd: 1.3 nM
LPA2 mutant R107A
  agonist/antagonist activity at LPA2 R107A mutant: no significant agonist nor antagonist activity
LPA2 [3]
  Emax: 90 ± 2%
LPA2 [3]; antagonism of 10 μM LPA, mean ± s.e.m.
  IC50: 1.9 µM
[4]; 25 mg/kg i.p. daily for 10 days from 1 h after lesion, day 50 postinjury, scale 0-9
  BMS score: 4.1 ± 0.3
[4]; 25 mg/kg i.p. daily for 10 days, significant from day 35 postinjury onward
  locomotor recovery after SCI (BMS): significant improvement in locomotor recovery after SCI
LPA2 mutant Q108A
  agonist/antagonist activity at LPA2 Q108A mutant: no significant agonist nor antagonist activity
LPA1
  Emax (%) LPA1: inactive and N.E.
LPA5
  activity at LPA5 receptor: inactive
LPA4
  activity at LPA4 receptor: inactive
LPA2 mutant K22A
  agonist/antagonist activity at LPA2 K22A mutant: no significant agonist nor antagonist activity
LPA2 [5]
  agonist activity at LPA2 receptor: lack
